# Reference: ChEMBL document CHEMBL1201862, “PubChem BioAssay data set” (2004)
# Activity calls are given as the source filed them.
# What was measured:
# [1] = Luminescence Cell-Based Dose Retest to Confirm Inhibitors of Cancer Stem Cells. [Related pubchem assays (depositor defined):AID2717, AID2721]; assay type: functional; details: Homo sapiens
# [2] = biological target: T1, Replicative DNA helicase DnaB (Mycobacterium tuberculosis, UniProt P9WMR3); assay: DnaB intein splicing inhibitors, dose response, biochemical, cell-free fluorescence (AID 449749); assay type: functional
# T1 sequence (P9WMR3 whole entry): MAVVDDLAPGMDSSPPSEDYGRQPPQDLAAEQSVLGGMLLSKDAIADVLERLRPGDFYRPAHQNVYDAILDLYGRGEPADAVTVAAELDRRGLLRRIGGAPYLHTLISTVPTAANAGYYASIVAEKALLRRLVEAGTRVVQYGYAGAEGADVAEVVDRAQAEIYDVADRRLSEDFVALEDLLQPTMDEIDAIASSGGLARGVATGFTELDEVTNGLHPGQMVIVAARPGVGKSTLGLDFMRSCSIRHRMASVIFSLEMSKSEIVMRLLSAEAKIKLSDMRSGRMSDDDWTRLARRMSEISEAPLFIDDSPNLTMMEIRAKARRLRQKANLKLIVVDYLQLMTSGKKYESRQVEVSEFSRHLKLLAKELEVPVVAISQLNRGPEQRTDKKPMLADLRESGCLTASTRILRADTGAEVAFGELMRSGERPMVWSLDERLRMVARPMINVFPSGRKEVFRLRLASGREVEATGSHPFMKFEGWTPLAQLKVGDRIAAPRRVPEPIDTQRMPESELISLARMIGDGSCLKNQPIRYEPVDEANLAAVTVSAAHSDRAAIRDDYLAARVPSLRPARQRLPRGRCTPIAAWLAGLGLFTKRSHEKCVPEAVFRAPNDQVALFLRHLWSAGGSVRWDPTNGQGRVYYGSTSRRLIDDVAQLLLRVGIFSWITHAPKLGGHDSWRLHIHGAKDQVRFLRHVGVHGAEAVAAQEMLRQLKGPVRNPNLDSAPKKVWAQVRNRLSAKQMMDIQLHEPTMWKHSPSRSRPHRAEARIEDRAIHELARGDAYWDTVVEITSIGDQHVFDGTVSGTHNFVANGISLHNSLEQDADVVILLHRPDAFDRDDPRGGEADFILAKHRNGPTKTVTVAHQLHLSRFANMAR
# [3] = biological target: T2, Protein RecA (Mycobacterium tuberculosis, UniProt P9WHJ3); assay: Fluorescence Cell-Free Homogeneous Dose Retest to Identify Inhibitors of RecA-Intein Splicing Activity. [Related pubchem assays (depositor defined):AID2097, AID2223, AID489010, AID492950]; assay type: functional
# T2 sequence (P9WHJ3 whole entry): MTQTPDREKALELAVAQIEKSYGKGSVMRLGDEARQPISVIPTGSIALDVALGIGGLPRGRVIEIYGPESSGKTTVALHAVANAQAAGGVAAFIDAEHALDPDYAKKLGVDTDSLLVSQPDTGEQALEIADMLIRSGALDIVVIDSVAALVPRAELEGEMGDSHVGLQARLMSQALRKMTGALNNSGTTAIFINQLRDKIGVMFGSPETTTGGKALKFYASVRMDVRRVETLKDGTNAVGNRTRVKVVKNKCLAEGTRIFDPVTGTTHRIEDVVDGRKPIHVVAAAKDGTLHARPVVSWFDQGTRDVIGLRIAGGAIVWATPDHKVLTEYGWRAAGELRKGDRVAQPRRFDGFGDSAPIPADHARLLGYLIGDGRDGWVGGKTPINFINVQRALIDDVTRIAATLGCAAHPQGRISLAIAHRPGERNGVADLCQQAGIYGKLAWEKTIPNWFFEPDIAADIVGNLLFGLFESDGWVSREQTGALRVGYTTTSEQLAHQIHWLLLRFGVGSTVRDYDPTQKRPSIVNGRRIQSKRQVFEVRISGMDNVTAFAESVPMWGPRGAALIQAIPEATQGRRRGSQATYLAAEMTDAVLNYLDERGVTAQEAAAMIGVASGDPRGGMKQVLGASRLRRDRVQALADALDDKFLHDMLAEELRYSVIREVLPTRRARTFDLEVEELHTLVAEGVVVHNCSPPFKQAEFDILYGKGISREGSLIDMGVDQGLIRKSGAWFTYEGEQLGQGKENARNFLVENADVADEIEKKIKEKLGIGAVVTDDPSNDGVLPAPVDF
# [4] = biological target: T3, Protein skinhead-1 (Caenorhabditis elegans, UniProt P34707); assay type: functional
# T3 sequence (P34707 whole entry): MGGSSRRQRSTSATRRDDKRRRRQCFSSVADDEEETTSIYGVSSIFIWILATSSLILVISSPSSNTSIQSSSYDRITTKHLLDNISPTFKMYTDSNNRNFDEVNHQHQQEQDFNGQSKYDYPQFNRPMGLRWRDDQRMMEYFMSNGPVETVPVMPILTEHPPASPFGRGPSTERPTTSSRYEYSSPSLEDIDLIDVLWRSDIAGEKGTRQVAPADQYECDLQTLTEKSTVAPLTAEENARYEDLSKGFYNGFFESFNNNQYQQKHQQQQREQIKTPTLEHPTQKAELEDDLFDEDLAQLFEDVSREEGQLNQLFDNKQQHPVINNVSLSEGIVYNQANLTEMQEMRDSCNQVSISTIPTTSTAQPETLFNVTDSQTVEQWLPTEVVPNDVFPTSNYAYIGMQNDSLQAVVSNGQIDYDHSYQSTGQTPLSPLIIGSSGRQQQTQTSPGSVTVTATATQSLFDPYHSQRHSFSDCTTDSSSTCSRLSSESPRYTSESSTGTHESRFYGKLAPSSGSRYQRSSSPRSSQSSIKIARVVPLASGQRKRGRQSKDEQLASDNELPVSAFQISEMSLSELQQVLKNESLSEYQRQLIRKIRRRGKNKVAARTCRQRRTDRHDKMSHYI
# [5] = biological target: Cytochrome P450 2C19 (Homo sapiens, UniProt P33261); assay: Cytochrome panel assay with activity outcomes. Panel member name: p450-cyp2c19 Compounds with AC50 equal or less than 10 uM are considered active; assay type: functional
# Chain of Cytochrome P450 2C19 (P33261 whole entry): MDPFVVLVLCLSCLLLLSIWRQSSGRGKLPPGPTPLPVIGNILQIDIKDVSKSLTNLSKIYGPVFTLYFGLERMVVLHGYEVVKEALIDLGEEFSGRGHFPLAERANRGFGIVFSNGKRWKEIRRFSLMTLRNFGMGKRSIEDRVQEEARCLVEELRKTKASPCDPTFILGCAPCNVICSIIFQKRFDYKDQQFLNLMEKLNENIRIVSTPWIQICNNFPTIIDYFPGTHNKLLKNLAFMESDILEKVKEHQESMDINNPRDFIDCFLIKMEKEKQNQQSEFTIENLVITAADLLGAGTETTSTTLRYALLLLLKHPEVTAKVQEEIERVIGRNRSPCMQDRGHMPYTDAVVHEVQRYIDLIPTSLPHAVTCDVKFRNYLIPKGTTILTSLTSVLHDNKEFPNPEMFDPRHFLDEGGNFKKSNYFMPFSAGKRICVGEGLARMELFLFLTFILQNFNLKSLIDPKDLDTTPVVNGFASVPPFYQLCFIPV
# [6] = biological target: Cytochrome P450 2D6 (Homo sapiens, UniProt P10635);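 also: CYP2D6 member of a cytochrome P450 panel assay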
# Chain of Cytochrome P450 2D6 (P10635 whole entry): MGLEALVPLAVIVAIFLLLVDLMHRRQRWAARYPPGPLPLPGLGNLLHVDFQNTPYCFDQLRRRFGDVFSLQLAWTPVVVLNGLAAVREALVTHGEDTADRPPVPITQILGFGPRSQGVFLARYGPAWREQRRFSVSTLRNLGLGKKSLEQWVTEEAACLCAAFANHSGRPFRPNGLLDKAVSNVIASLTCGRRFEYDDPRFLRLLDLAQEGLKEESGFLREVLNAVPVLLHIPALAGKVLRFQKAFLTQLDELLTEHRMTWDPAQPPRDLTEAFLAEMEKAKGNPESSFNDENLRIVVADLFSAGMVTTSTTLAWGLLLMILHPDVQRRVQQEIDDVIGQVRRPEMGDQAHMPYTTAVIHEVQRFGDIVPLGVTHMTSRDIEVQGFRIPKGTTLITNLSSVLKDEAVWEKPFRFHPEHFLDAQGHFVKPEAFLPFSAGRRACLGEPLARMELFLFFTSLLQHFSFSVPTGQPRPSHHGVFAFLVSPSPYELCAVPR
# [7] = system: Streptococcus sp. 'group A'; assay: Streptococcus pyogenes SK(-)GAS viability under kanamycin – luminescence, BacTiterGlo, confirmation, counter-screen for streptokinase expression inhibitor project, dose response (AID 1900); assay type: functional, organism-based
# [8] = system: Streptococcus; assay: GAS UMAA2166 growth inhibition – luminescence, BacTiterGlo, counter-screen for streptokinase expression inhibitor project, dose response (AID 1915); assay type: functional, organism-based;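 also: potency for reduction of bacterial viability or growth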
# [9] = biological target: T4, Streptokinase A (Streptococcus pyogenes serotype M1, UniProt P10520); assay: viability-normalized secreted streptokinase activity reduction – plasminogen activation absorbance, OD405, dose response (AID 1914); assay type: functional, Streptococcus pyogenes M1 GAS;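 also: secreted streptokinase activity via plasminogen activation per viability signal from cell pellet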
# T4 sequence (P10520 whole entry): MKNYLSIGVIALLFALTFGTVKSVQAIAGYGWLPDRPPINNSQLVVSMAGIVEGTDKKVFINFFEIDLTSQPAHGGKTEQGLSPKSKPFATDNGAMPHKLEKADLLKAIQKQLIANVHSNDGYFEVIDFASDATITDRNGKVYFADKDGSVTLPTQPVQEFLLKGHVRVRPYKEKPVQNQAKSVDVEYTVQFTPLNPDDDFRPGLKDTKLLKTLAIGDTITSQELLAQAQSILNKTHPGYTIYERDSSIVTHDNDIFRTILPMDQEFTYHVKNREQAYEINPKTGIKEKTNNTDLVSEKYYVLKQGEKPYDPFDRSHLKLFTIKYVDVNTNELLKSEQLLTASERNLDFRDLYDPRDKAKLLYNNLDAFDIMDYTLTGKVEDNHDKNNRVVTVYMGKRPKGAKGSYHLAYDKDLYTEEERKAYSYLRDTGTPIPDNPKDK
# [10] = NIH3T3 cell viability loss – ATP luminescence, mouse fibroblasts, counter-screen, dose response (AID 2010); assay type: functional, cell-based;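 also: cells exposed to compound for about 90 hours before reading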
# [11] = Trypanosoma cruzi growth suppression in host cells – NIH3T3 host cells, beta-gal luminescence, confirmation (AID 2044); assay type: functional, cell-based;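 also: intracellular parasites grown in NIH/3T3 mouse fibroblasts as host cells; luminescent beta-galactosidase reporter signal from transgenic T. cruzi replicating inside host cells; inhibitors lower the luminescence signal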
# [12] = system: INS1; assay: INS-1E survival protection against cytokine death – cell-based, luminescence, retest, dose response (AID 449756); assay type: functional; details: Rattus norvegicus;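 also: cell death triggered by IL-1 beta plus TNF-alpha plus IFN-gamma mixture; protective hits raise ATP signal compared with cytokine alone wells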
compound,measurement,setting,value
CC(C(=O)O)N1C(=O)CSc2ncccc21 (stereo not drawn),AC50,[1],> 195 µM (inactive)
C=CCN1C(=O)NC(c2ccc(OC)cc2)(C(F)(F)F)S/C1=C(\C#N)c1nnc(N2CCOCC2)n1-c1ccccc1 (stereo not drawn),AC50,[2],6.76 µM (active)
same,EC50,[3],9.73 µM (active)
CN(C(=O)C1Cc2c(-c3ccccc3Oc3ccccc3)ccnc2O1)c1ccccc1 (stereo not drawn),IC50,[4],> 100 µM (inactive)
c1ccc2oc(SCc3nc4ccccc4s3)nc2c1,IC50,[4],37.5 µM (active)
C[C@@]12CC[C@H]3[C@H](CC=C4C[C@@H](O)CC[C@@]43C)[C@@H]1CC[C@@H]2N(CCO)CCO,AC50,[5],inconclusive
same,AC50,[6],3.98 µM (inconclusive)
N#CC1=C(N)Oc2[nH]nc(-c3ccccc3)c2C1c1ccncc1 (stereo not drawn),AC50,[2],12.3 µM (active)
same,EC50,[3],3.12 µM (active)
CNc1nc(-c2ccoc2)nc2ccccc12,AC50,[6],39.8 µM (inconclusive)
Brc1ccc(-c2nnc(-c3ccccc3Br)o2)cc1,IC50,[4],> 100 µM (inactive)
COc1ccc(-c2nn(-c3ccccc3)cc2C(=O)N(C)CC(=O)Nc2cccc(F)c2)cc1,AC50,[1],12.9 µM (active)
O=C(CCl)c1ccc(Cc2ncc(C(F)(F)F)cc2Cl)s1,EC50,[7],4.31 µM (active)
same,AC50,[2],3.57 µM (active)
same,EC50,[8],6.13 µM (active)
same,EC50,[9],3.38 µM (active)
same,EC50,[3],1.69 µM (active)
CCN(C(=O)COC(=O)c1cc(-c2cccc3ccccc23)nc2ccccc12)C1CCS(=O)(=O)C1 (stereo not drawn),IC50,[4],> 100 µM (inactive)
CCOC(=O)c1cccc(C2=CC(=O)C[C@H](c3ccc(Cl)cc3)C2)c1,AC50,[1],0.885 µM (active)
CC(C)C1COC(c2cccc3ccccc23)=N1 (stereo not drawn),IC50,[4],25 µM (active)
Cc1cc(Nc2ccccc2)c2c([N+](=O)[O-])ccc(C)c2n1,AC50,[2],> 380 µM (inactive)
same,EC50,[10],> 30 µM (not active)
same,EC50,[11],1.41 µM (active)
same,EC50,[3],0.551 µM (active)
C/C(=N\NC(N)=S)c1cc(-c2ccccc2)c(-c2ccccc2)s1,AC50,[1],3.27 µM (active)
CC1CCN(S(=O)(=O)c2ccc(C(=O)N3CCOCC3)cc2)CC1,IC50,[4],> 100 µM (inactive)
CCNc1ncc2nc(-c3ccccc3)c(=O)n(C3CC3)c2n1,AC50,[6],1.26 µM (inconclusive)
Cn1c2c(c(=O)n(C)c1=O)[C@@]1(C(=O)Nc3ccccc31)C(C#N)=C(N)O2,AC50,[2],34.1 µM (inconclusive)
same,EC50,[3],17.5 µM (active)
O=C(NC(c1ccc(-c2ccccc2)cc1)c1cnccn1)C1CCN(CCOc2ccc(Cl)cc2Cl)CC1 (stereo not drawn),IC50,[4],> 100 µM (inactive)
CCC(C)c1ccc(NC(=O)C2CC3CCC2C3)cc1 (stereo not drawn),AC50,[1],4.53 µM (active)
CCCC1(C(=O)OCC)NC(c2ccc(N(C)C)cc2)C2C(=O)N(c3ccccc3)C(=O)C21 (stereo not drawn),IC50,[4],> 100 µM (inactive)
O=C(Nc1ccc(Br)c(C(F)(F)F)c1)c1ccc(C(F)(F)F)cc1,EC50,[7],1.74 µM (active)
same,AC50,[1],2.06 µM (active)
same,EC50,[8],3.98 µM (active)
same,AC50,[12],8.01 µM (active)
same,EC50,[9],> 150 µM (not active)
O=C(Nc1ccc(Cl)c(Cl)c1)Nc1ccon1,EC50,[7],44.4 µM (active)
same,IC50,[4],> 100 µM (inactive)
same,EC50,[8],38.7 µM (active)
same,EC50,[9],> 150 µM (not active)
CSc1cccc(NC(=O)C2C3C=CC4(O3)C2C(=O)N(CCN2CCOCC2)C4C(=O)NC2CCCCC2)c1 (stereo not drawn),IC50,[4],> 100 µM (inactive)
COc1ccc(C(C)C)cc1S(=O)(=O)n1cnc(C)c1,IC50,[4],> 100 µM (inactive)
Cc1ccc(N2CCN(S(=O)(=O)c3ccc4oc(=O)ccc4c3)CC2)c(C)c1,IC50,[4],> 100 µM (inactive)
NC(=S)Nc1ccc(Oc2ccc(NC(N)=S)cc2)cc1,AC50,[5]; read-out: AC50,25.1 µM (inconclusive)
same,AC50,[6],14.1 µM (inconclusive)
O=C(CN=C(S)N(Cc1ccccc1)Cc1ccccc1F)NCCc1ccc(Cl)cc1,EC50,[10],> 60 µM (not active)
same,AC50,[1],5.59 µM (active)
same,EC50,[11],1.92 µM (active)
c1csc(-c2nc(-c3ccncc3)no2)c1,IC50,[4],22.2 µM (active)
CC(C)(C)[C@@H]1CCC(=O)N(CC[C@H](Sc2ccc(Br)cc2)c2ccccc2)CC1,AC50,[1],3.18 µM (active)
O=C(Nc1nc(-c2ccc(Cl)s2)cs1)c1ccccc1,IC50,[4],68.3 µM (inactive)
CCOc1ccc2nc(O)c(CN(CCc3ccccc3)C(=O)N3CCCC3)cc2c1,AC50,[6],22.4 µM (inconclusive)
